Target: T1, AbHEMC (porphobilinogen deaminase, PBGD) (Ananas comosus, UniProt A0A1B2LUE6)
T1 construct: gene hemC; E. coli Rosetta-gami (DE3); about 45 kD on SDS-PAGE
Test: in vitro PBGD activity assay (method of Lee et al. […])
Assay type: biochemical
Details: recombinant fusion protein; substrate inferred from the named PBGD activity, assay conditions not given

T1 sequence (A0A1B2LUE6 entry or part of it): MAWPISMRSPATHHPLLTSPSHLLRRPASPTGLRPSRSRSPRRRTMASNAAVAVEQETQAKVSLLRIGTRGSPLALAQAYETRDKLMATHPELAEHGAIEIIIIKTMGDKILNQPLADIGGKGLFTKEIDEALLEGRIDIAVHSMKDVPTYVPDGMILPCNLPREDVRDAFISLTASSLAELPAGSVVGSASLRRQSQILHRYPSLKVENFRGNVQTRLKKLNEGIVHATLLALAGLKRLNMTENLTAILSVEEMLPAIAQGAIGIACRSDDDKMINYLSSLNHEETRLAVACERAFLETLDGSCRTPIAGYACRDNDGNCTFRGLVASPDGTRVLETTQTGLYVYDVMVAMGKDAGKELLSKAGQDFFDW

Q: Which “in vitro PBGD activity assay (method of Lee et al. 1992)” value does the source give for NCc1[nH]cc(CCC(=O)O)c1CC(=O)O [porphobilinogen] here?
A: in vitro analysis showed that the prokaryotic-expressed AbHEMC protein had PBGD activity
